Legend:
physchem = details: octan-1-ol/water
in vitro = details: human, plasma

| SMILES | logD (physchem; pH 7.4, LogD7.4) | fraction unbound at 5 h (in vitro; PPB) | logD (physchem; pH 7.4) | fraction unbound at 5 h (in vitro) |
| --- | --- | --- | --- | --- |
| N#Cc1c(N)nc2c(c1N)CC(COc1ccccc1)O2 (stereo not drawn) | 2.08 | 0.11 | – | – |
| Cc1cc(Nc2nc(N[C@@H](C)c3ncc(F)cn3)nc(N3CCOCC3)c2Cl)n[nH]1 | 2.61 | 0.228 | – | – |
| COc1cc(OC)c(S(=O)(=O)N(c2ccccc2)C(C)C)cc1NC(C)=O | 1.6 | 0.005 | – | – |
| Cc1cc(Nc2nc(N[C@@H](C)c3ncc(F)cn3)ncc2Br)n[nH]1 | 2.39 | 0.0854 | – | – |
| CC(C)(C)OC(=O)NCCCSC[C@H]1O[C@@H](n2cnc3c(N)ncnc32)[C@H](O)[C@@H]1O | 1.2 | 0.236 | – | – |
| Nc1nc(Nc2ccc(S(N)(=O)=O)cc2)nn1C(=O)c1c(F)cccc1F [JNJ-7706621] | 1.87 | 0.19 | – | – |
| Nc1nc2nc(-c3cccs3)cc(C(F)(F)F)n2n1 | 2.01 | 0.201 | – | – |
| CC(=O)Nc1ccc2cnn(-c3cc(NC4CC4)n4ncc(C#N)c4n3)c2c1 | 3.44 | 0.0191 | – | – |
| CS(=O)(=O)c1ccc2c(c1)N(CCN1CCC(NCc3ccc4c(n3)NC(=O)CO4)CC1)C(=O)CO2 | – | – | -0.51 | 0.145 |
| O=C1COc2ccccc2N1CCN1CCC(NCc2cc3c(cn2)OCCO3)CC1 | – | – | 1.04 | 0.253 |
| c1ccc2c(c1)CCN(c1ccncc1)C2 | 1.4 | 0.431 | – | – |
| COc1ccc(-c2nc3c(NCCCNC(C)=O)c(Br)cnc3[nH]2)cc1 | 3.28 | 0.0262 | – | – |
| Cc1cc(Nc2nc(N[C@@H](C)c3ccc(F)cn3)cnc2C)[nH]n1 | 1.73 | 0.16 | – | – |
| CN1CCN(c2ccc3ncc(C(N)=O)c(Nc4ccc(Cl)cc4Cl)c3c2)CC1 | 3.23 | 0.0179 | – | – |
| Cc1ccc(S(=O)(=O)N2N=Cc3oc(C)cc3B2O)cc1 | -0.28 | 0.051 | – | – |
| Cc1cnc(Nc2cc(N3CCN(C)CC3)nc(N[C@@H](C)c3ccc(F)cn3)n2)s1 | 2.9 | 0.0467 | – | – |
| CS(=O)(=O)c1ccc([C@@H](O)[C@@H](CF)NC(=O)C(Cl)Cl)cc1 [FLORFENICOL] | – | – | 0.44 | 0.676 |
| COc1ccc(CC(=O)Nc2nc3ccccc3[nH]2)cc1 | 2.9 | 0.0374 | – | – |
| CN(C)CCCN1c2ccccc2Sc2ccccc21 [PROMAZINE] | 2.56 | 0.101 | – | – |
| CC(=O)Nc1ccc2ccn(-c3cc(NCCN4CCCC4)n4ncc(C#N)c4n3)c2c1 | 2.24 | 0.0556 | – | – |
| CC(=O)Nc1cccc(Nc2nc(NC3CC3)n3ncc(C#N)c3n2)c1 | 2.1 | 0.107 | – | – |
| CC(=O)Nc1ccc2c(c1)N(c1cc(NC3CC3)n3ncc(C#N)c3n1)CC2 | 3.3 | 0.0251 | – | – |

| SMILES | logD (physchem; pH 7.4, LogD7.4) | fraction unbound at 5 h (in vitro; PPB) | logD (physchem; pH 7.4) | fraction unbound at 5 h (in vitro) |
| --- | --- | --- | --- | --- |
| COc1cc2ncc(C(N)=O)c(Nc3ccccc3C)c2cc1OC | 3.4 | 0.0081 | – | – |
| COc1ccc2ncc(=O)n(CCN3CC[C@H](NCc4ccc5c(n4)NC(=O)CO5)[C@H](O)C3)c2c1 | 0.39 | 0.137 | – | – |
| C[C@H](Nc1nc(Nc2ncc(C#N)s2)cc(N2CCOCC2)n1)c1ncc(F)cn1 | 2.26 | 0.117 | – | – |
| COc1ccc2c(c1)N(CCN1CCC(NCc3ccc4c(n3)NC(=O)CO4)CC1)C(=O)CO2 | – | – | 0.87 | 0.112 |
| CN[C@@H](C)C(=O)N[C@H](C(=O)N[C@H]1CCCN(CCc2ccc([N+](=O)[O-])cc2)C1)C(C)(C)C | 1.54 | 0.262 | – | – |
| CN[C@@H](C)C(=O)N[C@H](C(=O)N[C@H]1CCN(Cc2ccccc2)C1)C1CCCCC1 | 1.49 | 0.511 | – | – |
| COc1cc(C(=O)NC[C@@H](O)CN2CCC(Oc3ccc(Cl)c(Cl)c3)CC2)ccc1N | 3.12 | 0.0032 | – | – |
| Cn1ncc2c(=O)[nH]c(-c3ccccc3)nc21 | 1.61 | 0.0676 | – | – |
| Cc1cc(Nc2nc(O[C@@H](C)c3ccc(F)cn3)c(C#N)nc2C)[nH]n1 | 2.86 | 0.0594 | – | – |
| O=c1cc(-c2ccccc2)ccn1-c1ccc2c(cnn2CCN2CCCC2)c1 | 1.6 | 0.17 | – | – |
| CC(=O)Nc1ccc(-c2ccnc(Nc3ccc(N4CCOCC4)cc3)n2)cc1 | 2.91 | 0.0676 | – | – |
| COc1cc(Nc2nc(N[C@@H](C)c3ncc(F)cn3)ncc2Cl)n[nH]1 | 2.53 | 0.121 | – | – |
| CN[C@@H](C)C(=O)N[C@H](C(=O)N[C@H]1CCN(C(=O)c2ccccc2)C1)C1CCCCC1 | 0.82 | 0.661 | – | – |
| Cc1ccc(S(=O)(=O)Nc2c(C(=O)N[C@@H](C)C(C)(C)C)c(C)nn2C2CCN(C)CC2)cc1 | 0.8 | 0.454 | – | – |
| CC[C@@H](c1ccc(C(=O)O)c(Oc2cccc(Cl)c2)c1)N1CCC[C@H](n2cc(C)c(=O)[nH]c2=O)C1 | 0.22 | 0.0383 | – | – |
| Nc1ncnc2nc(-c3ccc(N4CCOCC4)nc3)cc(-c3cccc(Br)c3)c12 | 3.2 | 0.0343 | – | – |
| COc1ccc(-c2cc(N)n3ncc(C#N)c3n2)cc1 | 2.42 | 0.0676 | – | – |
| COc1cnc(-c2ccccn2)nc1NC(C)C | 2.01 | 0.224 | – | – |
| CN[C@@H](C)C(=O)N[C@H](C(=O)N[C@H]1CCCN(C(=O)c2ccccc2)C1)C1CCCCC1 | 0.87 | 0.552 | – | – |
| COc1cc2ncc(C(N)=O)c(Nc3ccc(F)cc3F)c2cc1N1CCN(C)CC1 | 2.18 | 0.253 | – | – |
| CN[C@@H](C)C(=O)N[C@H](C(=O)N[C@H]1CCCN(C(=O)Cc2ccccc2)C1)C1CCCCC1 | 1.32 | 0.376 | – | – |
| CC[C@H]1CN(Cc2cc(Cl)ccc2OCC(=O)O)CCN1S(=O)(=O)c1ccccc1 | 0.44 | 0.0069 | – | – |

| SMILES | logD (physchem; pH 7.4, LogD7.4) | fraction unbound at 5 h (in vitro; PPB) | logD (physchem; pH 7.4) | fraction unbound at 5 h (in vitro) |
| --- | --- | --- | --- | --- |
| Cc1cn([C@H]2CCCN(S(=O)(=O)c3ccc(O)c(Oc4cccc(F)c4)c3)C2)c(=O)[nH]c1=O | 1.6 | 0.0457 | – | – |
| O=c1cc(O)oc2c1c(=O)n(-c1ccccc1)c1ccccc21 | 0.96 | 0.0183 | – | – |
| O=C1OC2(c3ccc(O)cc3Oc3cc(O)ccc32)c2ccccc21 [FLUORESCEIN] | 0 | 0.19 | – | – |
| NC(=O)c1cncc(-c2ccc([C@H]3CC[C@H](CC(=O)O)CC3)cc2)c1 | 0.22 | 0.0268 | – | – |
| O=c1[nH]c([C@@H]2CCCN2)nc2c1oc1ccc(Cl)cc12 | 2.01 | 0.072 | – | – |
| CC(=O)Nc1ccc(Nc2ncc3cc(-c4ccncc4)ccc3n2)cc1 | 3.04 | 0.006 | – | – |
| N#Cc1cnn2c(N)cc(-c3ccccc3)nc12 | 2.48 | 0.0499 | – | – |
| O=c1[nH]c([C@@H]2CCCN2)nc2c1oc1ccc(Br)cc12 | 2.19 | 0.051 | – | – |
| C[C@H](Nc1ncc(F)c(Nc2cc(N(C)C)[nH]n2)n1)c1ncc(F)cn1 | 1.98 | 0.22 | – | – |
| Cc1cccc(-c2nc3cc(Cl)ccc3[nH]2)n1 | 4.1 | 0.0111 | – | – |
| CCS(=O)(=O)c1ccc2c(c1)N(CCN1CCC(NCc3ccc4c(n3)NC(=O)CO4)CC1)C(=O)CO2 | – | – | -0.11 | 0.304 |
| Cc1cc(Nc2nc(N[C@@H](C)c3ncc(F)cn3)ncc2F)n[nH]1 | 1.79 | 0.471 | – | – |
| C[C@H](Nc1ncc(Cl)c(Nc2cc(N(C)C)[nH]n2)n1)c1ncc(F)cn1 | 2.33 | 0.105 | – | – |
| Cc1ccc(NC(=O)c2ccnc(N3CCOCC3)c2)cc1NC(=O)c1ccc(OCc2ccccn2)cc1 | 3.47 | 0.0149 | – | – |
| CN(C)CCCN1c2ccccc2CCc2ccc(Cl)cc21 [CLOMIPRAMINE] | 3.36 | 0.0374 | – | – |
| CC(=O)c1cn(Cc2ccccc2)c(=O)n(Cc2ccc(F)cc2)c1=O | 3.2 | 0.0245 | – | – |
| CC(C)CCOc1ccc(N)cc1 | 2.67 | 0.0676 | – | – |
| CN[C@@H](C)C(=O)N[C@H](C(=O)N[C@H]1CCN(CCc2ccccc2)C1)C1CCCCC1 | 1.65 | 0.443 | – | – |
| Cc1cn([C@H]2CCCN(S(=O)(=O)c3ccc(O)c(Oc4ccccc4)c3)C2)c(=O)[nH]c1=O | 1.49 | 0.062 | – | – |
| CNc1c(Cl)cnc2nc(-c3ccc(OCCN4CCOCC4)cc3)[nH]c12 | 2.63 | 0.0191 | – | – |

Source: ChEMBL document CHEMBL3301361, “Experimental in vitro DMPK and physicochemical data on a set of publicly disclosed compounds”
